From US11618758B2, “Bicyclic and tricyclic pyrimidine tyrosine kinase inhibitors with antitubulin activity and methods of treating a patient” (Duquesne University of the Holy Spirit, priority 2011, dated 2023)

What was measured:
[1] = biological target: T1, epidermal growth factor receptor (EGFR) (Homo sapiens, UniProt P00533); experiment: Kinase inhibition EGFR; format: biochemical; settings: comparable to sunitinib
[2] = biological target: platelet derived growth factor receptor-β (PDGFR-β) (Homo sapiens, UniProt P09619); experiment: Kinase inhibition PDGFRβ; format: biochemical; settings: comparable to sunitinib
platelet derived growth factor receptor-β (PDGFR-β), sequence (P09619 33-1106, species assumed): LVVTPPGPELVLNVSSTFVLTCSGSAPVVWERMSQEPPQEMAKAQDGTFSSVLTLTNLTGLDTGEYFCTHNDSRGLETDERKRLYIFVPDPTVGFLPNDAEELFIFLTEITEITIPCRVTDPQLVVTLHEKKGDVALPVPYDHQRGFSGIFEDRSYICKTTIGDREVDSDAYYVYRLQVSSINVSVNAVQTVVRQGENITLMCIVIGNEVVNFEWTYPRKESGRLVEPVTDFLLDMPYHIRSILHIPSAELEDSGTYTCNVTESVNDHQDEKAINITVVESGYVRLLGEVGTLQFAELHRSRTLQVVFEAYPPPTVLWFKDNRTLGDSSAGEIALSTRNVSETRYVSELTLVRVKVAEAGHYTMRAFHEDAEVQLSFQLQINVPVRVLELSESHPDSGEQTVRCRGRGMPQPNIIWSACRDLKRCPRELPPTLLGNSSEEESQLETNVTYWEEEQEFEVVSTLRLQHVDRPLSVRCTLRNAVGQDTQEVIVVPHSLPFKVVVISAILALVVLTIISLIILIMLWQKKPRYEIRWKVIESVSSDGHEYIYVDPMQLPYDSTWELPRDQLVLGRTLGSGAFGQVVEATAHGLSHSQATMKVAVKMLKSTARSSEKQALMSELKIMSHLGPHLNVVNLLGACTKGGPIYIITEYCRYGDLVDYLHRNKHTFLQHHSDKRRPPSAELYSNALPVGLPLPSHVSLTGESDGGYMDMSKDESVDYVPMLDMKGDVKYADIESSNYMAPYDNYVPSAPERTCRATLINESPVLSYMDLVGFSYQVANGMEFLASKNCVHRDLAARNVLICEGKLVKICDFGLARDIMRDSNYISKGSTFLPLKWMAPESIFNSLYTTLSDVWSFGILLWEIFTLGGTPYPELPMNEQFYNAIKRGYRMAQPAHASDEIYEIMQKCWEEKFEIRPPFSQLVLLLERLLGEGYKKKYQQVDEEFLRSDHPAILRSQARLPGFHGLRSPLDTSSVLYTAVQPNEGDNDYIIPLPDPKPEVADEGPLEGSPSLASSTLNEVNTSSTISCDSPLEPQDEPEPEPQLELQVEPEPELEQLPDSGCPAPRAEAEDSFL

[3] = biological target: vascular endothelial growth factor receptor (VEGFR2, Flk-1) (Homo sapiens, UniProt P35968); experiment: Kinase inhibition VEGFR2; format: biochemical; settings: comparable to sunitinib
vascular endothelial growth factor receptor (VEGFR2, Flk-1), sequence (P35968 20-1356): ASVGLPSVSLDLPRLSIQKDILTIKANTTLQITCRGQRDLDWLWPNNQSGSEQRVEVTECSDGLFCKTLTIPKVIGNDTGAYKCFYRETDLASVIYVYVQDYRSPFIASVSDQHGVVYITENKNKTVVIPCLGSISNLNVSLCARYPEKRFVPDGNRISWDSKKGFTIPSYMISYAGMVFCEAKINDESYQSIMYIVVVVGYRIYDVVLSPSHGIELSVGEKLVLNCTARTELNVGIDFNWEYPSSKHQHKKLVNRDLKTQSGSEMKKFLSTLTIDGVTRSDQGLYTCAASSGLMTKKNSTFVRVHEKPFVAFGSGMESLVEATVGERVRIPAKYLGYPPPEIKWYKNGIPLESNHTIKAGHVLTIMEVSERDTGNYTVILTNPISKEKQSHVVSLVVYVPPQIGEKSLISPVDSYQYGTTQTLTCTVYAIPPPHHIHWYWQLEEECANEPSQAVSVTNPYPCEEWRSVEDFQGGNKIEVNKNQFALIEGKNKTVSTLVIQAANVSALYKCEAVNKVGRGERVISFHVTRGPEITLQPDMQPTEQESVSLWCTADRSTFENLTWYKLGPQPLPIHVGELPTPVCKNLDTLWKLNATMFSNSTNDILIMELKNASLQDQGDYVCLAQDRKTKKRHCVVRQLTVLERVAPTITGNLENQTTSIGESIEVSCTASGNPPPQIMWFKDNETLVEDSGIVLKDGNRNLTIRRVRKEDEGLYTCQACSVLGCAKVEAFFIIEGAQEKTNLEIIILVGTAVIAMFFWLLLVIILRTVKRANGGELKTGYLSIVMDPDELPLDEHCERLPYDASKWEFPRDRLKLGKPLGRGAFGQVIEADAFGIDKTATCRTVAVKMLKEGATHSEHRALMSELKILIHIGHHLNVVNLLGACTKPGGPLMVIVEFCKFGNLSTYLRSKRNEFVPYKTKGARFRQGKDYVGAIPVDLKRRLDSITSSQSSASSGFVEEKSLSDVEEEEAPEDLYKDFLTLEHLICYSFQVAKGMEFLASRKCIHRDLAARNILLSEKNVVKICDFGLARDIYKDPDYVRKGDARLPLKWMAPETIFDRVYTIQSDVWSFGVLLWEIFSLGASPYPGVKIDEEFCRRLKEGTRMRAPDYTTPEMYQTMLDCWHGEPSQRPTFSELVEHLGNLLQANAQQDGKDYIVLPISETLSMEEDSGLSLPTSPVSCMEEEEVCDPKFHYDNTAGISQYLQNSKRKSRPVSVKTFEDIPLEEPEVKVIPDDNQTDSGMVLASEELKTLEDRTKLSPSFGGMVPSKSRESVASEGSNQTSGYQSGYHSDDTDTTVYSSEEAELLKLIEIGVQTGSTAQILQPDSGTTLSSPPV

[4] = biological target: T1, epidermal growth factor receptor (EGFR); settings: does not inhibit EGFR even at these concentrations; cited from earlier work

T1 sequence (P00533 25-1210, species assumed): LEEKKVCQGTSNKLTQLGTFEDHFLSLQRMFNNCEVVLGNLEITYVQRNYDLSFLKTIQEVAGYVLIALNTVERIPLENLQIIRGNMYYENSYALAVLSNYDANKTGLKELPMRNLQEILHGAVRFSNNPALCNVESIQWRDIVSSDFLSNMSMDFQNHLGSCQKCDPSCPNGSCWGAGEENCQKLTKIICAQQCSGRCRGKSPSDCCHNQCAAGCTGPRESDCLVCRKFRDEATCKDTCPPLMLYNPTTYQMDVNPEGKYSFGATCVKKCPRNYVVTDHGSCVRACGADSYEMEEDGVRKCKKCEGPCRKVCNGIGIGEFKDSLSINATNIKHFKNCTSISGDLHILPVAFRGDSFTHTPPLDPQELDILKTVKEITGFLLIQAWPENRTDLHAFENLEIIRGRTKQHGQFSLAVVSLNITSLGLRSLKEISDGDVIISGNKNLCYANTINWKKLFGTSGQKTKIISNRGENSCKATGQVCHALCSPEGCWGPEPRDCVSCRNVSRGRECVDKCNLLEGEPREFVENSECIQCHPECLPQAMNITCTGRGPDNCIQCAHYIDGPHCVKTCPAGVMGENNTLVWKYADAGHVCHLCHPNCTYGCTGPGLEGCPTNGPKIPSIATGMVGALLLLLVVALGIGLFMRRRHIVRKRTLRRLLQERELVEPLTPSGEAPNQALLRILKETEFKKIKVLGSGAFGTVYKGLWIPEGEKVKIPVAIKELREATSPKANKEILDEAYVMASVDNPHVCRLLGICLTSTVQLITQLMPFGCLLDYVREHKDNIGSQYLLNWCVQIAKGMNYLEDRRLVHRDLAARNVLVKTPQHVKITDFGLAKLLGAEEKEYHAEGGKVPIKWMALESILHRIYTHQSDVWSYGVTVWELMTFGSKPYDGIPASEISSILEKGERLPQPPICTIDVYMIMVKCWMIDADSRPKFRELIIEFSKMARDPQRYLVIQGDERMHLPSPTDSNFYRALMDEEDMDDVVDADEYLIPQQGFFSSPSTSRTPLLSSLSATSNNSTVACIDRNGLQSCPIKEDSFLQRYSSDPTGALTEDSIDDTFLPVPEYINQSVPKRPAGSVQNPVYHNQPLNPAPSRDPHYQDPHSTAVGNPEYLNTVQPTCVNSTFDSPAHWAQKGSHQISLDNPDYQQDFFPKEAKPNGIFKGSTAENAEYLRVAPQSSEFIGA

Row | SMILES | EGFR kinase inhibition (in words, FIG. 16) [1] | PDGFR kinase inhibition (in words, FIG. 16) [2] | Flk-1 (VEGR2) kinase inhibition (in words, FIG. 16) [3] | concentration at which EGFR is not inhibited [4]
1 | COc1ccc2c(c1)CCCN2c1nc(C)nc2c1[nH]c1ccccc12 [Composition 106] | potent inhibitors | potent inhibitors | potent inhibitors | 
2 | CN(C)c1ccc(/C=C2\C(=O)Nc3ccccc32)cc1 [DMBI] |  |  |  | greater than 100 μM
